Measurements reported in US11147786B2, “Methods of treating chronic dry eye disease using C16:1n7-palmitoleate and derivatives thereof” (Tersus Life Sciences, LLC, priority 2014, dated 2021).
Several values for one entry are separate records, joined by “and”; a condition that tells them apart may be missing. Equal entries are not always repeated. Entries after “also recorded” stand apart in the source; their conditions may differ.

What was measured:
Type in all cases: in vivo, human
[1] = system: patients with moderate to severe dry eye symptoms/MGD; test: Patient comments on perceived improvement of dry eye symptoms, Example 2; conditions: patient's comment after 210 mg daily for over 30 days; one line per patient
Method: (§1) Twenty nine patients, each diagnosed as having moderate to severe dry eye symptoms/MGD, were selected for the study.
(§2) After the initial baseline evaluation, patients received daily doses of a dietary supplement containing 210 mg of C16:1n7-palmitoleate for over 30 days.
(§3) Tear osmolarity (TL) and MGD for left and right eyes (LE and RE respectively) were scored at Day 0 (baseline evaluation) and at the follow-up visit (FV), see Table 2. A tear osmolarity score of below 308 mOsms/L is normal, 308-320 mOsms/L is mild dry eyes, 320-340 mOsms/L is moderate dry eyes, and above 340 mOsms/L is severe dry eye. The terms ‘above’ and ‘below’ refer to values above and below the detectable range of the Tearlab diagnostic device respectively. Patients also recorded their comments regarding perceived improvements of their dry eye symptoms.

[2] = system: patients diagnosed with dry eye disease; test: Tear osmolarity in patients with dry eye disease, Example 1
Method: (§4) Patients diagnosed with dry eye disease (as determined by having tear osmolarity over 308 mOsms/L, which is the clinical minimum for dry eyes, per eye) were treated daily with a dietary supplement containing 210 mg of C16:1n7-palmitoleate for 30 days.
(§5) Tear osmolarity for left and right eyes were scored at day 1 and day 30, see Table 1. A tear osmolarity score of below 308 mOsms/L is normal, 308-320 mOsms/L is mild dry eyes, 320-340 mOsms/L is moderate dry eyes, and above 340 mOsms/L is severe dry eye. At day 30, patients also ranked their feeling of improvement of dry eye on a scale of 1-10, see Table 1.

[3] = system: patients diagnosed with dry eye disease; test: Patient ranking of symptom improvement, Example 1; conditions: patient's ranking at day 30, 210 mg daily; one line per patient 1-8
Method: as §4, §5

[4] = system: patients with moderate to severe dry eye symptoms/MGD; test: Meibomian gland dysfunction (MGD) score, Example 2; set-up: key to Day 0 MGD RE / Day 0 MGD LE / FV MGD RE / FV MGD LE: 1=meibomian glands in all 3 regions secreting/cloudy; 2=meibomian glands in 2 out of 3 regions secreting/cloudy; 3=meibomian glands in 1 out of 3 regions secreting/cloudy; 4=no observable meibomian gland secretion in any of the 3 regions; 2+ and 2,3 are used interchangeably and mean more than ⅔<1; 2+ and 2,3 are used interchangeably and mean more than ⅔<1
Description: as §1
Patients were classified as having none, mild, or moderate meibomian gland secretion blockage by evaluating the secretion of the meibomian glands in the nasal, central, and temporal regions of the lower eyelid. MGD was scored using a 0-4 grading scale, 4 correlating with severe dysfunction. A summary of the grading scale is provided below: • 1=meibomian glands in all 3 regions secreting/cloudy • 2=meibomian glands in 2 out of 3 regions secreting/cloudy • 3=meibomian glands in 1 out of 3 regions secreting/cloudy • 4=no observable meibomian gland secretion in any of the 3 regions • 2+ and 2,3 are used interchangeably and mean more than ⅔<1.
as §2, §3

[5] = system: patients with moderate to severe dry eye symptoms/MGD; test: Tear osmolarity (TL) in patients with dry eye symptoms/MGD, Example 2
Method: as §1, §2, §3

CCCCCC/C=C\CCCCCCCC(=O)O [C16:1n7-palmitoleate]
Comment (perceived improvement of dry eye symptoms) [1]: great (4×) and good (19×) and poor and Better and happy (2×) and better | Tear Osmolarity Day 1, left eye ([2]; Day 1 (start of treatment), left eye, one line per patient 1-8, below 308 normal, 308-320 mild, 320-340 moderate, above 340 severe): Left eye 294 mOsms/L; also recorded: Left eye 333 mOsms/L; also recorded: Left eye 312 mOsms/L; also recorded: Left eye 351 mOsms/L; also recorded: Left eye 322 mOsms/L; also recorded: Left eye 314 mOsms/L; also recorded: Left eye 347 mOsms/L; also recorded: Left eye 332 mOsms/L | Tear Osmolarity Day 1, right eye ([2]; Day 1 (start of treatment), right eye, one line per patient 1-8): Right eye 362 mOsms/L; also recorded: Right eye 305 mOsms/L; also recorded: Right eye 340 mOsms/L; also recorded: Right eye 382 mOsms/L; also recorded: Right eye 325 mOsms/L; also recorded: Right eye 341 mOsms/L; also recorded: Right eye 328 mOsms/L; also recorded: Right eye 367 mOsms/L | Tear Osmolarity Day 30, left eye ([2]; Day 30 of daily dietary supplement with 210 mg, left eye, one line per patient 1-8): Left eye 300 mOsms/L; also recorded: Left eye 302 mOsms/L; also recorded: Left eye 293 mOsms/L; also recorded: Left eye 314 mOsms/L; also recorded: Left eye 301 mOsms/L; also recorded: Left eye 308 mOsms/L; also recorded: Left eye 313 mOsms/L | Tear Osmolarity Day 30, right eye ([2]; Day 30 of daily dietary supplement with 210 mg, right eye, one line per patient 1-8): Right eye 314 mOsms/L; also recorded: Right eye 300 mOsms/L; also recorded: Right eye 308 mOsms/L; also recorded: Right eye 302 mOsms/L; also recorded: Right eye 299 mOsms/L; also recorded: Right eye 307 mOsms/L; also recorded: Right eye 367 mOsms/L; also recorded: Right eye 310 mOsms/L | Dry eye severity after 30 days in patients with at least one severe dry eye initially ([2]; patients 1, 2, 5 and 7, 30 days of treatment): normal or very mild dry eyes | Symptom Improvement (Scale of 1-10) [3]: 4 (2×) and 7 (2×) and 6 (2×) and 8 and 3 | Day 0 MGD LE ([4]; MGD score 0-4 (4 severe), left eye, Day 0 baseline before treatment, one line per patient): 2 (2×) and 4 (14×) and 2+ (2×) and 3 (8×) | Day 0 MGD RE ([4]; MGD score 0-4 (4 severe), right eye, Day 0 baseline before treatment, one line per patient): 3 (9×) and 4 (14×) and 2+ (2×) and 2 | FV MGD LE ([4]; MGD score 0-4, left eye, follow-up visit after 210 mg daily for over 30 days, one line per patient): 1 (8×) and 3 (6×) and 2 (7×) and 1, and 2+ and 4 (4×) and 0 | FV MGD RE ([4]; MGD score 0-4, right eye, follow-up visit after 210 mg daily for over 30 days, one line per patient): 1 (9×) and 3 (5×) and 2+ and 2 (6×) and 1, and 4 (5×) and 0 | MG secretion in patients with severe MGD scores initially ([4]; patients 1, 4-7, 11-13, 15-16, 20-22, 24 and 27): showed improvement in MG secretion | Day 0 TL LE ([5]; left eye, Day 0 baseline before treatment, one line per patient): 311 mOsms/L and 307 mOsms/L (2×) and 349 mOsms/L (2×) and 312 mOsms/L and 314 mOsms/L (3×) and above (2×) and 324 mOsms/L and 339 mOsms/L and 308 mOsms/L and 364 mOsms/L (2×) and 361 mOsms/L and 317 mOsms/L (2×) and 302 mOsms/L and 326 mOsms/L and 356 mOsms/L and 320 mOsms/L and 313 mOsms/L and 358 mOsms/L and 323 mOsms/L and 327 mOsms/L | FV TL LE ([5]; left eye, follow-up visit after 210 mg daily for over 30 days, one line per patient): 317 mOsms/L and 298 mOsms/L and 303 mOsms/L (2×) and 291 mOsms/L and 310 mOsms/L and 316 mOsms/L and 314 mOsms/L and 299 mOsms/L (2×) and 354 mOsms/L and 352 mOsms/L and 330 mOsms/L and 324 mOsms/L and 331 mOsms/L and 327 mOsms/L and 300 mOsms/L and above and 305 mOsms/L and below (2×) and 308 mOsms/L and 323 mOsms/L and 311 mOsms/L and 306 mOsms/L | Day 0 TL RE ([5]; right eye, Day 0 baseline before treatment, one line per patient 1-29, above/below = outside detectable range of Tearlab device): 321 mOsms/L and 316 mOsms/L and 357 mOsms/L and 311 mOsms/L and 326 mOsms/L and 329 mOsms/L (2×) and 383 mOsms/L and 335 mOsms/L and below and 330 mOsms/L (2×) and 318 mOsms/L and 337 mOsms/L and 324 mOsms/L and 313 mOsms/L and 290 mOsms/L and 293 mOsms/L and 235 mOsms/L and 348 mOsms/L and 310 mOsms/L and 301 mOsms/L and 322 mOsms/L and 308 mOsms/L and 360 mOsms/L and 303 mOsms/L and 351 mOsms/L | FV TL RE ([5]; right eye, follow-up visit after 210 mg daily for over 30 days, one line per patient): 284 mOsms/L and 302 mOsms/L (3×) and 301 mOsms/L and 295 mOsms/L and 307 mOsms/L (2×) and 304 mOsms/L and 348 mOsms/L and 354 mOsms/L and 352 mOsms/L and 345 mOsms/L and 309 mOsms/L and 314 mOsms/L and 318 mOsms/L (2×) and 355 mOsms/L and below (2×) and 294 mOsms/L and 303 mOsms/L and 308 mOsms/L and 311 mOsms/L and 235 mOsms/L
